# Source: ChEMBL document CHEMBL3576790, “Novel Small Molecule Inhibitors of Activated Thrombin Activatable Fibrinolysis Inhibitor (TAFIa) from Natural Product Anabaenopeptin” (J Med Chem, 2015)
# *1 amine or outer side, *2 acyl side, *3 side chain or, on linkers, in order; H or OH if unused. Where a SMILES comes first, the peptide text is derived from it. Bridges are numbered along the chain shown (N, C = ends). [ ]: non-standard residue; d: D form. hTyr = N[C@@H](CCc1ccc(O)cc1)C(=O)O; NMeA = CN[C@@H](C)C(=O)O; CO = O=C([*:1])[*:2]
# What was measured:
# Carboxypeptidase B2 = molecular target: T1, Carboxypeptidase B2 (Homo sapiens, UniProt Q96IY4)
# T1 sequence (Q96IY4 whole entry): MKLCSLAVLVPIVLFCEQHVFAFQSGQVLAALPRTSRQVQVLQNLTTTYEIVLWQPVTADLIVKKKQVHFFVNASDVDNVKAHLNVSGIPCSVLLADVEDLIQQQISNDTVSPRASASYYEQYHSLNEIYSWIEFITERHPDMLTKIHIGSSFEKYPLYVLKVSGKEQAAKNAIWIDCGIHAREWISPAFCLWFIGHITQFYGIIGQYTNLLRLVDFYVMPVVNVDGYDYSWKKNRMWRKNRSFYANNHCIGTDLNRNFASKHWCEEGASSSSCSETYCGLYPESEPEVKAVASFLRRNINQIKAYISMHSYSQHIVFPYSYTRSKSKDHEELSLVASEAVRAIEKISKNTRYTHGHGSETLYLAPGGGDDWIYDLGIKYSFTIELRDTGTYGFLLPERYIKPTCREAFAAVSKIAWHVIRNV
# Description: Inhibition of human activated TAFI incubated for 15 mins by microtiter plate reader based assay
# [1] = molecular target: T2, Carboxypeptidase N catalytic chain (Homo sapiens, UniProt P15169); test: Inhibition of CPN (unknown origin)
# T2 sequence (P15169 whole entry): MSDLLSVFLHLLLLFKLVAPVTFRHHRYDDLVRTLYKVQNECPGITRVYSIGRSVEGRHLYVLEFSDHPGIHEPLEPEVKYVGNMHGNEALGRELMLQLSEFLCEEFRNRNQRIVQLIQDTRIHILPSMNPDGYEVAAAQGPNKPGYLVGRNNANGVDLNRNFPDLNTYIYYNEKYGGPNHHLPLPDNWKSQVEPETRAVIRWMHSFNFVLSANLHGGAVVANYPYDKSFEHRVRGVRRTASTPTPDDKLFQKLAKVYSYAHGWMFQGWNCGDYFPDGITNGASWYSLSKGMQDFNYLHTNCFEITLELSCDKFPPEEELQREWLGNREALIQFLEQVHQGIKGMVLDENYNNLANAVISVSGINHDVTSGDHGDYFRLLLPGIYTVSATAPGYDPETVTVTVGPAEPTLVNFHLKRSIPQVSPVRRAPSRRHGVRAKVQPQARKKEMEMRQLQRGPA
# Coagulation factor XI = Coagulation factor XI (Homo sapiens, UniProt P03951); test: Inhibition of factor11a (unknown origin)
# Chain of Coagulation factor XI (P03951 19-387 limits assumed): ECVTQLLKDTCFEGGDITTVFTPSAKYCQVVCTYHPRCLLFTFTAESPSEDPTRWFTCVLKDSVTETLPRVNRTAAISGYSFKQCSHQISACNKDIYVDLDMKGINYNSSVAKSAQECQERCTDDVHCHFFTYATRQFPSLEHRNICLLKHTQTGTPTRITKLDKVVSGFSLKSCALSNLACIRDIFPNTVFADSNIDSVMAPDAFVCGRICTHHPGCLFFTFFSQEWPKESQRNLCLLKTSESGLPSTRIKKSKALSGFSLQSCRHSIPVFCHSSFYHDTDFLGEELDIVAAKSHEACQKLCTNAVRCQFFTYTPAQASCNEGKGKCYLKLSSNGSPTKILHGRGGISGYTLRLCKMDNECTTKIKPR
# Chain of Coagulation factor XI (P03951 388-625 limits assumed): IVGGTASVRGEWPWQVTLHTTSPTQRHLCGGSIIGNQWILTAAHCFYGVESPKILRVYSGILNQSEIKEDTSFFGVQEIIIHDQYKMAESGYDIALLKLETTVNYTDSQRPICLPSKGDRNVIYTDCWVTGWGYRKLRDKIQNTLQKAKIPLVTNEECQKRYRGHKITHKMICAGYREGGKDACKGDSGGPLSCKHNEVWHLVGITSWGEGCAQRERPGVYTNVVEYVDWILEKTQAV
# Coagulation factor X = Coagulation factor X (Homo sapiens, UniProt P00742); test: Inhibition of factor10a (unknown origin)
# Chain of Coagulation factor X (P00742 41-179 limits assumed): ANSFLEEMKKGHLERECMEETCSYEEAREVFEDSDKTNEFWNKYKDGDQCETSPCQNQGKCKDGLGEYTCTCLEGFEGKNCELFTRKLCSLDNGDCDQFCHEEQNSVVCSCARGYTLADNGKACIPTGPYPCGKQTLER
# Chain of Coagulation factor X (P00742 235-488 limits assumed): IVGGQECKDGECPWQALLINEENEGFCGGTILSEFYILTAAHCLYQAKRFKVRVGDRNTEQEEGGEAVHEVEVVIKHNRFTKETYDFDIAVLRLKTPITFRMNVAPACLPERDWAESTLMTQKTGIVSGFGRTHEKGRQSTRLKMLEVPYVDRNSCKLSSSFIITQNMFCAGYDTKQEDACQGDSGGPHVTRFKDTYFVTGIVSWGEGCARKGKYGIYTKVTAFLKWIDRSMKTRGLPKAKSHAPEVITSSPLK
# Carboxypeptidase A1 = molecular target: T3, Carboxypeptidase A1 (Homo sapiens, UniProt P15085); test: Inhibition of CPA (unknown origin)
# T3 sequence (P15085 whole entry): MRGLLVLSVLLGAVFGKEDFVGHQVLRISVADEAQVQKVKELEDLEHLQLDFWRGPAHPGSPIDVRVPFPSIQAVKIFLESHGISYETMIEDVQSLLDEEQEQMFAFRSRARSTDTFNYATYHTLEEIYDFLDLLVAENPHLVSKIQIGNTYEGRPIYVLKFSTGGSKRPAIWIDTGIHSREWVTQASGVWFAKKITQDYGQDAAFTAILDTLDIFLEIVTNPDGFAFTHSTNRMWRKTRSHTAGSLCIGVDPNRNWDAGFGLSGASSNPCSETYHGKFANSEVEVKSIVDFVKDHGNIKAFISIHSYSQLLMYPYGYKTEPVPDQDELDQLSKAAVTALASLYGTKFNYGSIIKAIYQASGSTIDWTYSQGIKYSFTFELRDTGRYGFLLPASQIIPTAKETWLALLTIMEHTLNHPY
# Prothrombin = Prothrombin (Homo sapiens, UniProt P00734); test: Inhibition of factor2a (unknown origin)
# Coagulation factor VII = molecular target: T4, Coagulation factor VII (Homo sapiens, UniProt P08709); test: Inhibition of factor7a (unknown origin)
# T4 sequence (P08709 whole entry): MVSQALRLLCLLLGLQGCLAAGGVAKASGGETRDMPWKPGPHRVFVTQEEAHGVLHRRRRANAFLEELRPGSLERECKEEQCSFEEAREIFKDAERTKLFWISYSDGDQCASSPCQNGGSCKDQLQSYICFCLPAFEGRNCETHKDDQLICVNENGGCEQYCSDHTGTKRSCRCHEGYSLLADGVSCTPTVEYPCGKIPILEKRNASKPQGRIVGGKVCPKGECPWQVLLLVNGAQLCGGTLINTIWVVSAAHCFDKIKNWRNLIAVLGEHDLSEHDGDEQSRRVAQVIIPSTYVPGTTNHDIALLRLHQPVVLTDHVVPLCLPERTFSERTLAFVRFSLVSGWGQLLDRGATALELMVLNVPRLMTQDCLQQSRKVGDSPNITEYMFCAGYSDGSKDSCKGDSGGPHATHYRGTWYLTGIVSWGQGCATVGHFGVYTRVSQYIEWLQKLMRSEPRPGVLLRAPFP
smiles,measurement,setting,value
CC(C)CCNC(=O)[C@@H](CCCCNC(=O)OCc1ccccc1)NC(=O)N[C@@H](CCCCN)C(=O)O,IC50,Carboxypeptidase B2,1400 nM
CC(C)[C@@H]1NC(=O)[C@H](NC(=O)N[C@@H](CCCCN)C(=O)O)CCCCNC(=O)[C@H](Cc2ccccc2)NC(=O)[C@H](C)N(C)C(=O)[C@H](CCc2ccc(O)cc2)NC1=O,IC50,[1],5700 nM
same,IC50,Coagulation factor XI,12000 nM
same,IC50,Coagulation factor X,> 100000 nM
same,IC50,Carboxypeptidase A1,> 100000 nM
same,IC50,Prothrombin,6000 nM
same,IC50,Coagulation factor VII,> 100000 nM
NCCCC[C@H](NC(=O)N[C@H](CC1CCCCC1)C(=O)NCC(c1ccccc1)c1ccccc1)C(=O)O,IC50,Carboxypeptidase B2,120 nM
CC12CCC(C(NC(=O)[C@H](NC(=O)N[C@@H](CCCCN)C(=O)O)C3CCCCC3)C1)C2(C)C (stereo partly specified),IC50,Carboxypeptidase B2,1000 nM
CC(C)(NC(=O)N[C@@H](CCCCN)C(=O)O)C(=O)NC1CC2(C)CCC1C2(C)C (stereo partly specified),IC50,Carboxypeptidase B2,6100 nM
CCC[C@@H](NC(=O)N[C@@H](CCCCN)C(=O)O)C(=O)NC1CC2(C)CCC1C2(C)C (stereo partly specified),IC50,Carboxypeptidase B2,15 nM
CC12CCC(C(NC(=O)[C@@H](CC3CCCCC3)NC(=O)N[C@@H](CS(=O)(=O)CCN)C(=O)O)C1)C2(C)C (stereo partly specified),IC50,Carboxypeptidase B2,38 nM
CC12CCC(C(NC(=O)[C@@H](CC3CCCCC3)NC(=O)N[C@@H](Cc3ccc(N)nc3)C(=O)O)C1)C2(C)C (stereo partly specified),IC50,Carboxypeptidase B2,1 nM
CC12CCC(C(NC(=O)[C@@H](CC3CCCCC3)NC(=O)N[C@H](Cc3ccc(N)nc3)C(=O)O)C1)C2(C)C (stereo partly specified),IC50,Carboxypeptidase B2,250 nM
CC12CCC(C(NC(=O)[C@@H](CC3CCCCC3)NC(=O)N[C@@H](Cc3ccc(N)nc3)C(N)=O)C1)C2(C)C (stereo partly specified),IC50,Carboxypeptidase B2,570 nM
CC12CCC(C(NC(=O)[C@@H](CC3CCCCC3)NC(=O)N[C@H](C#N)Cc3ccc(N)nc3)C1)C2(C)C (stereo partly specified),IC50,Carboxypeptidase B2,54000 nM
"CC12CCC(C(NC(=O)[C@@H](Cc3ccccc3)NC(=O)N[C@@H](CCCCN)C(=O)O)C1)C2(C)C (single isomer, unassigned; (+))",IC50,Carboxypeptidase B2,15 nM
"CC(C)C[C@@H](NC(=O)N[C@@H](CCCCN)C(=O)O)C(=O)NC1CC2(C)CCC1C2(C)C (single isomer, unassigned; (+))",IC50,Carboxypeptidase B2,57 nM
CC(C)[C@@H]1NC(=O)[C@H](NC(=O)N[C@@H](CCCNC(=N)N)C(=O)O)CCCCNC(=O)[C@H](Cc2ccccc2)NC(=O)[C@H](C)N(C)C(=O)[C@H](CCc2ccc(O)cc2)NC1=O [ANABAENOPEPTIN B] ({Arg-CO}-[dK]V[hTyr][NMeA]F; lactam 1-C),IC50,Coagulation factor XI,24000 nM
same,IC50,Coagulation factor X,> 100000 nM
same,IC50,Prothrombin,1600 nM
same,IC50,Coagulation factor VII,> 100000 nM
CC[C@H](C)[C@@H]1NC(=O)[C@H](NC(=O)N[C@@H](CCCNC(=N)N)C(=O)O)CCCCNC(=O)[C@H](Cc2ccccc2)NC(=O)[C@H](C)N(C)C(=O)[C@H](CCc2ccc(O)cc2)NC1=O [ANABAENOPEPTIN F] ({Arg-CO}-[dK]I[hTyr][NMeA]F; lactam 1-C),IC50,Coagulation factor XI,3900 nM
same,IC50,Coagulation factor X,38000 nM
same,IC50,Prothrombin,350 nM
same,IC50,Coagulation factor VII,35000 nM
